Assay results: patent US7538241B2, “Hsp90 family protein inhibitors” (Kyowa Hakko Kogyo Co., Ltd., priority 2003, dated 2009)

Legend:
Format in all cases: cell-based
[1] = test system: human chronic myelocytic leukemia-derived K562 cells; experiment: Cell growth inhibition test with K562 cells (WST-1); settings: 72 hours, read-out: 50% growth inhibition concentration (GI50)
Method in brief: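 K562 cells at 1500 cells/well in 10% FCS RPMI 1640, pre-incubated 5 h, then exposed to serially diluted compound for 72 h at 37° C, 5% CO2. Viability read by WST-1 after 2 h (absorbance 450/655 nm); GI50 reported.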

[2] = test system: human mammary cancer-derived KPL-4 cells; experiment: Cell growth inhibition test with KPL-4 cells (WST-1); settings: KPL4, 72 hours, read-out: 50% growth inhibition concentration (GI50)
Method in brief: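 KPL-4 cells pre-incubated 24 h in 10% FCS DMEM, then exposed to serially diluted compound for 72 h at 37 °C, 5% CO2. WST-1 added for 1 h; A450 minus A655 read. GI50 relative to untreated cells.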

[3] = test system: human multiple myeloma-derived KMS-11 cells; experiment: Cell growth inhibition test with KMS-11 cells (WST-1); settings: 72 hours, read-out: 50% growth inhibition concentration (GI50)
Protocol: In a 96-well plate (Nunc), human multiple myeloma-derived KMS-11 cells were sown in an amount of 4000 cells/well, and pre-incubated in 10% FCS-containing RPMI 1640 (Nissui) (incubation medium) in a 5% carbon dioxide incubator at 37° C. for 24 hours. Next, a DMSO solution of a test compound controlled at 10 mmol/L was stepwise diluted with the incubation medium, and added to each well in a total amount of 100 μL/well, and further incubated in the 5% carbon dioxide incubator at 37° C. for 72 hours. After the incubation, WST-1-labeled mixture (Rosh Diagnostic) diluted 2-fold with the incubation medium was added thereto in an amount of 20 μL/well, and incubated in the 5% carbon dioxide incubator at 37° C. for 2 hours. Using a microplate spectrophotometer (Biorad's Model 550), the absorbance at 450 nm and 655 nm of each well was measured. The cell growth inhibition activity of the test compound was indicated by the 50% growth inhibition concentration (GI50) thereof, like in Test Example 2.

Compound `COCCN(C)C(=O)Cc1c(Br)c(O)cc(O)c1-c1ccccc1` [Compound 37, 2-(2-Bromo-3,5-dihydroxy-6-phenylphenyl)-N-(2-methoxyethyl)-N-methylacetamide] has a GI50 [1] of at most 50 µM and a GI50 [2] of at most 50 µM.
With `CCc1c(O)cc(O)c(-c2ccccc2)c1CC(=O)OC` [Compound 52, Methyl 2-ethyl-3,5-dihydroxy-6-phenylphenylacetate] the GI50 [3] was at most 50 µM and the GI50 [2] was at most 50 µM.
For `COC(=O)Cc1c(C(C)=O)c(O)cc(O)c1-c1ccccc1` [Compound 69, Methyl 2-acetyl-3,5-dihydroxy-6-phenylphenylacetate], the GI50 [1] was at most 50 µM and the GI50 [2] was at most 50 µM.
Work on `CCc1c(O)cc(O)c(-c2ccccc2)c1CCOC` [Compound 83, 6-Ethyl-5-(2-methoxyethyl)-4-phenylbenzene-1,3-diol] yielded a GI50 [1] of at most 50 µM and a GI50 [2] of at most 50 µM.
For `CCc1c(O)cc(O)c(-c2ccccc2)c1CCO` [Compound 84, 6-Ethyl-5-(2-hydroxyethyl)-4-phenylbenzene-1,3-diol], the GI50 [1] was at most 50 µM, the GI50 [3] was at most 50 µM and the GI50 [2] was at most 50 µM.
`COCCc1c(C(C)=O)c(O)cc(O)c1-c1ccccc1` [Compound 92, 1-[2,4-Dihydroxy-6-(2-methoxyethyl)-5-phenylphenyl]ethanone] gave a GI50 [1] of at most 50 µM, a GI50 [3] of at most 50 µM and a GI50 [2] of at most 50 µM.
`OCCCc1c(Br)c(O)cc(O)c1-c1ccccc1` [Compound 104, 6-Bromo-5-(3-hydroxypropyl)-4-phenylbenzene-1,3-diol] showed a GI50 [1] of at most 50 µM and a GI50 [2] of at most 50 µM.
Compound `COCCc1c(C(C)=O)c(O)cc(O)c1-c1cccc(OC)c1` [Compound 116, 1-[2,4-Dihydroxy-6-(2-methoxyethyl)-5-(3-methoxyphenyl)phenyl]ethanone] has a GI50 [1] of at most 50 µM, a GI50 [3] of at most 50 µM and a GI50 [2] of at most 50 µM.
For `CCc1c(O)cc(O)c(-c2cccc(OC)c2)c1CCOC` [Compound 118, 6-Ethyl-5-(2-methoxyethyl)-4-(3-methoxyphenyl)benzene-1,3-diol], the GI50 [1] was at most 50 µM, the GI50 [3] was at most 50 µM and the GI50 [2] was at most 50 µM.
Work on `COCCc1c(C(C)=O)c(O)cc(O)c1-c1cccc(C)c1` [Compound 122, 1-[2,4-Dihydroxy-6-(2-methoxyethyl)-5-(3-methylphenyl)phenyl]ethanone] yielded a GI50 [1] of at most 50 µM, a GI50 [3] of at most 50 µM and a GI50 [2] of at most 50 µM.
Compound `CCc1c(O)cc(O)c(-c2ccccc2)c1CCCO` [Compound 123, 6-Ethyl-5-(3-hydroxypropyl)-4-phenylbenzene-1,3-diol] has a GI50 [1] of at most 50 µM and a GI50 [2] of at most 50 µM.
`CCc1c(O)cc(O)c(-c2cccc(C)c2)c1CCOC` [Compound 130, 6-Ethyl-5-(2-methoxyethyl)-4-(3-methylphenyl)benzene-1,3-diol] showed a GI50 [1] of at most 50 µM and a GI50 [2] of at most 50 µM.
Work on `COCCOCCc1c(C(C)=O)c(O)cc(O)c1-c1ccccc1` [Compound 136, 1-[2,4-Dihydroxy-6-[2-(2-methoxyethoxy)ethyl]-5-phenylphenyl)ethanone] yielded a GI50 [1] of at most 50 µM and a GI50 [2] of at most 50 µM.
In the case of `COCCOCCc1c(C(C)=O)c(O)cc(O)c1-c1cccc(OC)c1` [Compound 137, 1-{2,4-dihydroxy-6-[2-(2-methoxyethoxy)ethyl]-5-(3-methoxyphenyl)phenyl}ethanone], the GI50 [1] is reported as at most 50 µM and the GI50 [2] is reported as at most 50 µM.
Work on `CCc1c(O)cc(O)c(-c2cccc(OC)c2)c1CCO` [Compound 143, 6-Ethyl-5-(2-hydroxyethyl)-4-(3-methoxyphenyl)benzene-1,3-diol] yielded a GI50 [1] of at most 50 µM and a GI50 [2] of at most 50 µM.
Compound `C=CCOCCCc1c(CC)c(O)cc(O)c1-c1ccccc1` [Compound 145, 5-(3-Allyloxypropyl)-6-ethyl-4-phenylbenzene-1,3-diol] has a GI50 [1] of at most 50 µM and a GI50 [2] of at most 50 µM.
With `CCc1c(O)cc(O)c(-c2ccccc2)c1CCCOCCOC` [Compound 146, 6-Ethyl-5-[3-(2-methoxyethoxy)propyl]-4-phenylbenzene-1,3-diol] the GI50 [1] was at most 50 µM and the GI50 [2] was at most 50 µM.
With `CCc1c(O)cc(O)c(-c2ccccc2)c1CCCOCC(O)CO` (stereo not drawn) [Compound 148, 5-[3-(2,3-Dihydroxypropoxy)propyl]-6-ethyl-4-phenylbenzene-1,3-diol] the GI50 [1] was at most 50 µM and the GI50 [2] was at most 50 µM.
For `CCc1c(O)cc(O)c(-c2cccc(C)c2)c1CCOCCOC` [Compound 149, 6-Ethyl-5-[2-(2-methoxyethoxy)ethyl]-4-(3-methylphenyl)benzene-1,3-diol], the GI50 [1] was at most 50 µM and the GI50 [2] was at most 50 µM.
For `CCc1c(O)cc(O)c(-c2ccccc2)c1CCOCC(=O)NC` [Compound 156, 2-[2-(2-Ethyl-3,5-dihydroxy-6-phenylphenyl)ethoxy]-N-methylacetamide], the GI50 [1] was at most 50 µM and the GI50 [2] was at most 50 µM.
`CCc1c(O)cc(O)c(-c2ccccc2)c1CCOCCO` [Compound 161, 6-Ethyl-5-[2-(2-hydroxyethoxy)ethyl]-4-phenylbenzene-1,3-diol] was tested, and the GI50 [1] was at most 50 µM and the GI50 [2] was at most 50 µM.
Work on `CCc1c(O)cc(O)c(-c2ccccc2)c1CCCOCCO` [Compound 162, 6-Ethyl-5-[3-(2-hydroxyethoxy)propyl]-4-phenylbenzene-1,3-diol] yielded a GI50 [1] of at most 50 µM and a GI50 [2] of at most 50 µM.
`CCc1c(O)cc(O)c(-c2ccccc2)c1CCCOC(CO)CO` [Compound 163, 5-{3-[Bis(hydroxymethyl)methoxy]propyl}-6-ethyl-4-phenylbenzene-1,3-diol] gave a GI50 [1] of at most 50 µM and a GI50 [2] of at most 50 µM.
In the case of `COCCOCCc1c(C(C)=O)c(O)cc(O)c1-c1cccc(O)c1` [Compound 165, 1-{2,4-Dihydroxy-5-(3-hydroxyphenyl)-6-[2-(2-methoxyethoxy)ethyl]phenyl}ethanone], the GI50 [1] is reported as at most 50 µM and the GI50 [2] is reported as at most 50 µM.
`CCc1c(O)cc(O)c(-c2ccccc2)c1CCCOCC(=O)NCCO` [Compound 167, 2-[3-(2-Ethyl-3,5-dihydroxy-6-phenylphenyl)propoxy]-N-(2-hydroxyethyl)acetamide] gave a GI50 [1] of at most 50 µM and a GI50 [2] of at most 50 µM.
In the case of `CCc1c(O)cc(O)c(-c2cccc(O)c2)c1CCOC` [Compound 171, 6-Ethyl-4-(3-hydroxyphenyl)-5-(2-methoxyethyl)benzene-1,3-diol], the GI50 [1] is reported as at most 50 µM and the GI50 [2] is reported as at most 50 µM.
For `CCc1c(O)cc(O)c(-c2cccc(O)c2)c1CCO` [Compound 172, 6-Ethyl-5-(2-hydroxyethyl)-4-(3-hydroxyphenyl)benzene-1,3-diol], the GI50 [1] was at most 50 µM and the GI50 [2] was at most 50 µM.
Work on `CCc1c(O)cc(O)c(-c2cccc(O)c2)c1CCOCC(O)CO` (stereo not drawn) [Compound 173, 5-[2-(2,3-dihydroxypropoxy)ethyl]-6-ethyl-4-(3-hydroxyphenyl)benzene-1,3-diol] yielded a GI50 [1] of at most 50 µM and a GI50 [2] of at most 50 µM.
In the case of `CCc1c(O)cc(O)c(-c2ccccc2)c1CCOCCCO` [Compound 175, 6-Ethyl-5-[2-(3-hydroxypropoxy)ethyl]-4-phenylbenzene-1,3-diol], the GI50 [1] is reported as at most 50 µM and the GI50 [2] is reported as at most 50 µM.
Compound `CCc1c(O)cc(O)c(-c2cccc(OC)c2)c1CCOCC(O)CO` (stereo not drawn) [Compound 189, 5-[2-(2,3-Dihydroxypropoxy)ethyl]-6-ethyl-4-(3-methoxyphenyl)benzene-1,3-diol] has a GI50 [1] of at most 50 µM and a GI50 [2] of at most 50 µM.
`CCc1c(O)cc(O)c(-c2ccccc2)c1CCc1ocnc1CO` [Compound 210, 6-Ethyl-5-[2-(4-hydroxymethyl-1,3-oxazol-5-yl)ethyl]-4-phenylbenzene-1,3-diol] was tested, and the GI50 [1] was at most 50 µM and the GI50 [3] was at most 50 µM.
For `CCc1c(O)cc(O)c(-c2cccc(C)c2)c1CC1O[C@@H](CO)[C@H](CO)O1` [Compound 229, 5-{[(4S,5S)-4,5-bis(hydroxymethyl)-1,3-dioxolan-2-yl]methyl}-6-ethyl-4-(3-methylphenyl)benzene-1,3-diol], the GI50 [1] was at most 50 µM and the GI50 [3] was at most 50 µM.
`CCc1c(O)cc(O)c(-c2ccco2)c1CCOCCO` [Compound 256, 6-Ethyl-4-(furan-2-yl)-5-[2-(2-hydroxyethoxy)ethyl]benzene-1,3-diol] was tested, and the GI50 [1] was at most 50 µM and the GI50 [3] was at most 50 µM.
In the case of `COC(=O)Cc1cc(O)cc(O)c1-c1ccc2ccccc2c1` [Compound 270, Methyl-3,5-dihydroxy-2-(2-naphthyl)phenylacetate], the GI50 [1] is reported as at most 50 µM and the GI50 [2] is reported as at most 50 µM.
With `CCc1c(O)cc(O)c(-c2cccs2)c1CCOCCO` [Compound 275, 6-Ethyl-5-[2-(2-hydroxyethoxy)ethyl]-4-(2-thienyl)benzene-1,3-diol] the GI50 [1] was at most 50 µM and the GI50 [3] was at most 50 µM.
`CCc1cc(-c2n[nH]c3cc(OC)ccc23)c(O)cc1O` [Compound 276, 6-Ethyl-4-(6-methoxy-1H-indazol-3-yl)benzene-1,3-diol] gave a GI50 [3] of at most 50 µM and a GI50 [2] of at most 50 µM.
With `CCc1c(O)cc(O)c(-c2ccc(F)c(C)c2)c1CC1O[C@@H](CO)[C@H](CO)O1` [Compound 300, 5-{[(4S,5S)-4,5-Bis(hydroxymethyl)-1,3-dioxolan-2-yl]methyl}-6-ethyl-4-(4-fluoro-3-methylphenyl)benzene-1,3-diol] the GI50 [1] was at most 50 µM and the GI50 [3] was at most 50 µM.
`CCc1c(O)cc(O)c(-c2ccccc2)c1Cc1nn(CCOC)c(=O)o1` [Compound 317, 5-[(2-Ethyl-3,5-dihydroxy-6-phenylphenyl)methyl]-3-(2-methoxyethyl)-3H-1,3,4-oxadiazol-2-one] showed a GI50 [1] of at most 50 µM and a GI50 [3] of at most 50 µM.
